Data reported in patent US6737383B1, “Herbicidal oxadiazolidines” (priority 1999, dated 2004).

Assays:
giant foxtail = experiment: Test B pre/postemergence giant foxtail; format: in vivo, Setaria faberii
Outline: (§1)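 Test chemicals in a non-phytotoxic solvent mixture with surfactant were sprayed preemergence onto planted seeds and postemergence onto plants 2 to 18 cm tall (1- to 4-leaf stage). After twelve to sixteen days in a greenhouse, injury was visually rated against untreated controls from 0 (no effect) to 10 (complete control).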

bamyardgrass = experiment: Test B flood test barnyardgrass; format: in vivo, Echinochloa crus-galli
Outline: (§2)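 Read-out is a visual response score from 0 (no effect) to 10 (complete control), assigned by comparison with untreated controls. Treatment was applied at the 2-leaf stage, and plants stayed in the greenhouse for twelve to sixteen days before scoring.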

purple nutsedge = experiment: Test B pre/postemergence purple nutsedge; format: in vivo, Cyperus rotundus
Outline: as §1

corn = experiment: Test B pre/postemergence corn; format: in vivo, Zea mays
Outline: as §1

wheat = experiment: Test B pre/postemergence wheat; format: in vivo, Triticum aestivum
Outline: as §1

duck salad = experiment: Test B flood test duck salad; format: in vivo, Heteranthera limosa
Outline: as §2

soybean = experiment: Test B pre/postemergence soybean; format: in vivo, Glycine max
Outline: as §1

sugar beet = experiment: Test B pre/postemergence sugar beet; format: in vivo, Beta vulgaris
Outline: as §1

wild oat = experiment: Test B pre/postemergence wild oat; format: in vivo, Avena fatua
Outline: as §1

rice = experiment: Test B flood test rice; format: in vivo, Oryza sativa
Outline: as §2

cocklebur = experiment: Test B pre/postemergence cocklebur; format: in vivo, Xanthium strumarium
Outline: as §1

rape = experiment: Test B pre/postemergence rape; format: in vivo, Brassica napus
Outline: as §1

pigweed = experiment: Test B pre/postemergence pigweed; format: in vivo, Amaranthus retroflexus
Outline: as §1

morningglory = experiment: Test B pre/postemergence morningglory; format: in vivo, Ipomoea hederacea
Outline: as §1

velvetleaf = experiment: Test B pre/postemergence velvetleaf; format: in vivo, Abutilon theophrasti
Outline: as §1

crabgrass = experiment: Test B pre/postemergence crabgrass; format: in vivo, Digitaria sanguinalis
Outline: as §1

[1] = Preemergence, Rate 62 g/ha, scale of 0 to 10 where 0 is no effect and 10 is complete control
[2] = Preemergence, Rate 250 g/ha, scale of 0 to 10 where 0 is no effect and 10 is complete control
[3] = Preemergence, Rate 500 g/ha, scale of 0 to 10 where 0 is no effect and 10 is complete control
[4] = Rate 125 g/ha, Postemergence, scale of 0 to 10 where 0 is no effect and 10 is complete control
[5] = Rate 125 g/ha, Preemergence, scale of 0 to 10 where 0 is no effect and 10 is complete control
[6] = Rate 250 g/ha, Postemergence, scale of 0 to 10 where 0 is no effect and 10 is complete control
[7] = Rate 500 g/ha, Postemergence, scale 0 to 10, 0 no effect, 10 complete control
[8] = Rate 62 g/ha, headed Pre-emergence (flood test species), scale 0 to 10 (0 no effect, 10 complete control)
[9] = Rate 125 g/ha, Pre-emergence, flood test species, scale 0 to 10 where 0 is no effect and 10 is complete control
[10] = Rate 250 g/ha, Pre-emergence, flood-test species, scale 0 to 10, 0 is no effect, 10 is complete control
[11] = Rate 500 g/ha, Pre-emergence, flood test species, scale 0 to 10 (0 no effect, 10 complete control)
[12] = Rate 62 g/ha, Postemergence, scale of 0 to 10 where 0 is no effect and 10 is complete control

## Cc1ccccc1-n1c(=O)on(C(=O)N(c2ccc(C(C)(C)C)cc2)C(C)C)c1=O [Compound 270]
Giant foxtail; [1]
  Giant foxtail plant response rating: 0
Giant foxtail; [2]
  Giant foxtail plant response rating: 0
Giant foxtail; [3]
  Plant response rating, Giant foxtail: 0
Giant foxtail; [4]
  Giant foxtail plant response rating: 0
Giant foxtail; [5]
  Giant foxtail plant response rating: 0
Giant foxtail; [6]
  Plant response rating, Giant foxtail: 0
Giant foxtail; [7]
  Giant foxtail plant response rating: 0
bamyardgrass; [8]
  Barnyardgrass plant response rating: 0
bamyardgrass; [9]
  Barnyardgrass plant response rating: 0
bamyardgrass; [10]
  Barnyardgrass plant response rating: 0
bamyardgrass; [11]
  Barnyardgrass plant response rating: 0
Purple nutsedge; [1]
  Nutsedge plant response rating: 0
Purple nutsedge; [2]
  Nutsedge plant response rating: 0
Purple nutsedge; [3]
  Plant response rating, Nutsedge: 0
Purple nutsedge; [4]
  Nutsedge plant response rating: 0
Purple nutsedge; [5]
  Nutsedge plant response rating: 0
Purple nutsedge; [6]
  Plant response rating, Nutsedge: 0
Purple nutsedge; [7]
  Nutsedge plant response rating: 0
corn; [1]
  Corn plant response rating: 0
corn; [2]
  Corn plant response rating: 0
corn; [3]
  Plant response rating, Corn: 0
corn; [12]
  Corn plant response rating: 0
corn; [4]
  Corn plant response rating: 0
corn; [5]
  Corn plant response rating: 0
corn; [6]
  Plant response rating, Corn: 0
corn; [7]
  Corn plant response rating: 0
wheat; [1]
  Wheat plant response rating: 0
wheat; [2]
  Wheat plant response rating: 0
wheat; [3]
  Plant response rating, Wheat: 0
wheat; [4]
  Wheat plant response rating: 0
wheat; [5]
  Wheat plant response rating: 0
wheat; [6]
  Plant response rating, Wheat: 0
wheat; [7]
  Wheat plant response rating: 0
Duck salad; [8]
  Ducksalad plant response rating: 0
Duck salad; [9]
  Ducksalad plant response rating: 0
Duck salad; [10]
  Ducksalad plant response rating: 0
Duck salad; [11]
  Ducksalad plant response rating: 0
soybean; [1]
  Soybean plant response rating: 0
soybean; [2]
  Soybean plant response rating: 0
soybean; [3]
  Plant response rating, Soybean: 0
soybean; [4]
  Soybean plant response rating: 0
soybean; [5]
  Soybean plant response rating: 0
soybean; [6]
  Plant response rating, Soybean: 2
soybean; [7]
  Soybean plant response rating: 2
Sugar beet; [1]
  Sugarbeets plant response rating: 0
Sugar beet; [2]
  Sugarbeets plant response rating: 0
Sugar beet; [3]
  Plant response rating, Sugarbeets: 0
Sugar beet; [4]
  Sugarbeets plant response rating: 0
Sugar beet; [5]
  Sugarbeets plant response rating: 0
Sugar beet; [6]
  Plant response rating, Sugarbeets: 0
Sugar beet; [7]
  Sugarbeets plant response rating: 0
Wild oat; [1]
  Wild oats plant response rating: 0
Wild oat; [2]
  Wild oats plant response rating: 0
Wild oat; [3]
  Plant response rating, Wild oats: 0
Wild oat; [4]
  Wild oats plant response rating: 0
Wild oat; [6]
  Plant response rating, Wild oats: 0
Wild oat; [7]
  Wild oats plant response rating: 0
rice; [8]
  Rice plant response rating: 0
rice; [9]
  Rice plant response rating: 0
rice; [10]
  Rice plant response rating: 0
rice; [11]
  Rice plant response rating: 0
cocklebur; [1]
  Cocklebur plant response rating: 0
cocklebur; [2]
  Cocklebur plant response rating: 0
cocklebur; [3]
  Plant response rating, Cocklebur: 0
cocklebur; [12]
  Cocklebur plant response rating: 0
cocklebur; [4]
  Cocklebur plant response rating: 0
cocklebur; [5]
  Cocklebur plant response rating: 0
cocklebur; [6]
  Plant response rating, Cocklebur: 0
cocklebur; [7]
  Cocklebur plant response rating: 0
rape; [1]
  Rape plant response rating: 0
rape; [2]
  Rape plant response rating: 0
rape; [3]
  Plant response rating, Rape: 0
rape; [4]
  Rape plant response rating: 0
rape; [5]
  Rape plant response rating: 0
rape; [6]
  Plant response rating, Rape: 0
rape; [7]
  Rape plant response rating: 0
pigweed; [1]
  Redroot pigweed plant response rating: 0
pigweed; [2]
  Redroot pigweed plant response rating: 0
pigweed; [3]
  Plant response rating, Redroot pigweed: 0
pigweed; [4]
  Redroot pigweed plant response rating: 0
pigweed; [5]
  Redroot pigweed plant response rating: 0
pigweed; [6]
  Plant response rating, Redroot pigweed: 0
pigweed; [7]
  Redroot pigweed plant response rating: 0
morningglory; [1]
  Morningglory plant response rating: 0
morningglory; [2]
  Morningglory plant response rating: 0
morningglory; [3]
  Plant response rating, Morningglory: 0
morningglory; [4]
  Morningglory plant response rating: 0
morningglory; [5]
  Morningglory plant response rating: 0
morningglory; [6]
  Plant response rating, Morningglory: 0
morningglory; [7]
  Morningglory plant response rating: 0
velvetleaf; [1]
  Velvetleaf plant response rating: 0
velvetleaf; [2]
  Velvetleaf plant response rating: 0
velvetleaf; [3]
  Plant response rating, Velvetleaf: 0
velvetleaf; [4]
  Velvetleaf plant response rating: 0
velvetleaf; [5]
  Velvetleaf plant response rating: 0
velvetleaf; [6]
  Plant response rating, Velvetleaf: 0
velvetleaf; [7]
  Velvetleaf plant response rating: 0
crabgrass; [1]
  Crabgrass plant response rating: 0
crabgrass; [2]
  Crabgrass plant response rating: 0
crabgrass; [3]
  Plant response rating, Crabgrass: 0
crabgrass; [4]
  Crabgrass plant response rating: 0
crabgrass; [5]
  Crabgrass plant response rating: 0
crabgrass; [6]
  Plant response rating, Crabgrass: 0
crabgrass; [7]
  Crabgrass plant response rating: 0
